The results in this text go back to publication PMC4741889, “Ligand-based chemoinformatic discovery of a novel small molecule inhibitor targeting CDC25 dual specificity phosphatases and displaying in vitro efficacy against melanoma cells” (Oncotarget, 2015).

In assay [1] the test system is Bcl-2 and Bax protein levels. Nature of the assay: Western blotting of Bcl-2 and Bax protein levels in SAN cells. Format: cell-based, human. As to conditions: 100 μM, 8 or 16 h. The procedure: Mitochondria represent the primary source of ROS, as well the target of ROS action, and therefore, compound 7 could affect their functionality in melanoma cells. […] Proteins belonging to the B-cell lymphoma-2 (Bcl-2) family are involved in the modulation of the mitochondrial functionality. Therefore, we have evaluated the levels of the anti-apoptotic protein Bcl-2, as well as that of the pro-apoptotic Bcl-2-associated X protein (Bax), after incubation with 7 (Figure 10B). […] To further investigate the occurrence of a mitochondrial-mediated apoptosis induced by 7, the caspase-9 activity was assayed. […]
(§1) A2058 cells were seeded into 6-well-plates (3 × 10^5 cells/plate) for 24 h at 37°C and then treated at different times with 100 μM compound 7 or 0.5% DMSO. […] The protein concentration was determined by the method of Bradford, using bovine serum albumin (BSA) as standard. […] Membranes were then analysed by an enhanced chemiluminescence reaction, using Super Signal West Pico kit (Pierce) according to manufacturer's instruction; signals were visualized by autoradiography.
Supplementary Figure S6: Effect of compound 7 on some apoptotic mitochondrial markers in SAN cells. […] Total protein extracts from SAN cells, incubated with 0.5% DMSO or 100 μM compound 7 for 8 or 16 h,were analyzed by Western blotting. […]
Background: Immunoblotting shows a protein as a band on a membrane.

A further assay relates to p53 protein levels. Nature of the assay: Western blotting of p53 protein levels in A2058 cells. The note with it: A2058, 100 μM, 8 h; significant after 16 h. The class given is cell-based, human. The procedure:
The molecular mechanisms that regulate the cytotoxic potential of 7 in melanoma cells were further investigated through the evaluation of the activation state of protein kinase B (pAkt), one of the key proteins involved in the control and regulation of cell survival. To this aim, the protein levels of pAkt have been analyzed after 2- and 4-h incubation of A2058 cells with 7. […] It is known that Akt regulates the process of cell survival by phosphorylating different substrates, directly or indirectly involved in the apoptotic program. One of these targets is p53, a protein with a tumor-suppressor activity that regulates the cell cycle, as well as the expression of several genes involved in the apoptosis. […]
as §1

Assay [2] deals with Bcl-2 and Bax protein levels. Nature of the assay: Western blotting of Bcl-2 and Bax protein levels in A2058 cells. The class given is cell-based, human. The note with it: A2058, 100 μM. The procedure:
(§2) Mitochondria represent the primary source of ROS, as well the target of ROS action, and therefore, compound 7 could affect their functionality in melanoma cells. […] Proteins belonging to the B-cell lymphoma-2 (Bcl-2) family are involved in the modulation of the mitochondrial functionality. Therefore, we have evaluated the levels of the anti-apoptotic protein Bcl-2, as well as that of the pro-apoptotic Bcl-2-associated X protein (Bax), after incubation with 7 (Figure 10B). […] To further investigate the occurrence of a mitochondrial-mediated apoptosis induced by 7, the caspase-9 activity was assayed. […] The effect of compound 7 was investigated also in SAN cells and the overall results were similar to those observed in A2058 (Supplementary Figure S6).
A2058 cells were seeded into 6-well-plates (3 × 10^5 cells/plate) for 24 h at 37°C and then treated at different times with 100 μM compound 7 or 0.5% DMSO. After treatment, cells were harvested, washed with PBS and then lysed in ice-cold modified radio immunoprecipitation assay (RIPA) buffer (50 mM Tris-HCl, pH 7.4, 150 mM NaCl, 1% Nonidet P-40, 0.25% sodium deoxycholate, 1 mM Na3VO4 and 1 mM NaF), supplemented with protease inhibitors and incubated for 30 min on ice. The supernatant obtained after centrifugation at 12,000 rpm for 30 min at 4°C constituted the total protein extract. The protein concentration was determined by the method of Bradford, using bovine serum albumin (BSA) as standard. Equal amounts of total protein extracts were used for Western blot analysis. […] The filter was incubated with the specific primary antibody at 4°C overnight and then with the secondary antibody at room temperature for 1 h. Membranes were then analysed by an enhanced chemiluminescence reaction, using Super Signal West Pico kit (Pierce) according to manufacturer's instruction; signals were visualized by autoradiography.

A further assay concerns the target T1, CDC25B (Homo sapiens, UniProt P30305).
T1 construct: Recombinant forms of the catalytic domains of CDC25A, -B and -C were obtained through the vectors pET28a-CDC25A-cd, pET28a-CDC25B-cd and pET28a-CDC25C-cd; made in house
T1 sequence (P30305 431-538 limits assumed): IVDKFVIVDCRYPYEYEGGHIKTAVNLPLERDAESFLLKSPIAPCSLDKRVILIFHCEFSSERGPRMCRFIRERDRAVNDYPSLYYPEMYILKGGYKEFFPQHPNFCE
Briefly: Ki from OMFP hydrolysis kinetics (Lineweaver-Burk), CDC25B. The note with it: 10 nM CDC25B, 1–25 μM OMFP; mean ± S.E. The class given is biochemical. On the procedure: To measure the inhibition constant (Ki) of the recombinant forms of CDC25A, -B and -C towards the various inhibitors, the affinity of the different forms of CDC25 towards OMFP was measured either in the absence or in the presence of fixed concentrations of the various inhibitors. The reaction mixture contained 20 nM CDC25A, or 10 nM CDC25B, or 40 nM CDC25C, and different concentrations of the various inhibitors in 500 μL final volume of 20 mM Tris-HCl, pH 7.8, 1 mM DTT. DMSO was used as vehicle control. The reaction started by the addition of 1–25 μM OMFP, and the rate of OMFP hydrolysis was measured as indicated before. The corresponding Lineweaver-Burk plots allowed the calculation of the KM for OMFP and of the Vmax of OMFP hydrolysis, expressed as a.u./minmax. […] The Ki values were obtained from the decrease of a.u./minmax in the presence of the inhibitor, according to the equation a.u./mimmax’ = a.u./mimmax/{1 + ([I]/Ki)}, where a.u./mimmax’ represents the Vmax measured in the presence of the concentration [I] of the inhibitor. The Ki values were obtained from at least three independent experiments and reported as mean ± S.E.

The next assay relates to A2058 cells. Briefly: Mitochondrial membrane potential (R123), A2058 cells. Format: cell-based, human. As to conditions: A2058, 100 μM, 24 h up to 72 h. The procedure:
as §2
Mitochondrial membrane potential was evaluated by measuring the incorporation of the fluorescent probe R123, essentially as previously described. Briefly, cells were seeded into 6-well-plates (3 × 10^5 cells/well) for 24 h at 37°C, and then incubated at 37°C for 1 h in the presence of 5 μM R123, washed twice with PBS, and placed in medium containing 100 μM compound 7 or 0.5% DMSO. […] The fluorescence of cell-associated R123 was detected in the above-mentioned fluorescence spectrophotometer, using excitation and emission wavelengths of 490 and 520 nm, respectively; both excitation and emission slits were set at 10 nm.

The next assay has as its system CDC25C protein levels. Nature of the assay: Western blotting of CDC25C protein levels in SAN cells. The note with it: 100 μM, 1, 2 or 4 h. The class given is cell-based, human.

Broadly, the Ki is the dissociation constant of the complex between target and ligand, obtained from inhibition or displacement. As to `O=C(O)C1CCCCC1c1c2ccc(=O)cc-2oc2cc(O)ccc12` (stereo not drawn) [Compound 7, 2-(6-hydroxy-3-oxo-3H-xanthen-9-yl)cyclohexanecarboxylic acid], in assay [1], the Bcl-2/Bax ratio result is recorded as “significantly decreased”; the “Bcl-2 and Bax protein levels” value is “both levels of Bcl-2 and Bax were reduced”. Besides, in the assay with p53 protein levels, the p53 protein level result is “higher level of p53 compared to control”. For the same molecule, in assay [2] (8 and 16 h), the Bcl-2/Bax ratio entry was “significant reduction” and the Bcl-2 protein level entry was “clear reduction of the Bcl-2 level after 8-h treatment”. Also, the Bax protein level entry in assay [2] (16 h) is “clear increase of Bax”. Moreover, the Ki on CDC25B was determined as 780 ± 30 nM. The “mitochondrial membrane potential (R123 fluorescence)” value in the assay on A2058 cells was “reduction of the mitochondrial membrane potential”. The CDC25C protein levels result in the assay with CDC25C protein levels is reported as “earlier decrease of CDC25C protein levels”.
